The values that follow come from patent publication US7572612B2, “Method of production of para-hydroxycinnamic acid using a thermostable TAL enzyme” (E.I. du Pont de Nemours and Company, priority 2006, dated 2009).

As usually defined, the Km is the substrate concentration at which the rate is half of its maximum.

Test [1] relates to Phanerochaete chrysosporium tyrosine ammonia lyase PcTAL (PAL/TAL enzyme), wild type, SEQ ID NO:1. Description: PcTAL substrate test with histidine. In kind it is biochemical. The note with it: 20 mM histidine, 100 mM diethanol amime at pH 9, 1.3 mM 2-mercaptoethanol, 0.1 mM MnCl2. The procedure:
The increase of TAL and PAL activities with increasing substrate concentrations followed the typical Michaelis-Menton equation. The kcat of the enzyme was 1.3 S^−1 for tyrosine, and 3.3 S^−1 for phenylalanine. The KM was 44 μM for tyrosine and 161 μM for phenylalanine. The kcat/KM value was slightly higher for tyrosine (3.0 M^−1 S^−1) than for phenylalanine (2.1 M^−1 S^−1), indicating the enzyme's slight preference for tyrosine (PAL/TAL ratio of 0.7). […] The substrate specificity of the PcTAL enzyme is therefore similar to other known fungal PAL/TAL enzymes, such as that from R. glutinis, with dual specificity for tyrosine and phenylalanine.

Test [2] shares this test system. Put plainly: Kinetic parameters of the PcTAL enzyme for tyrosine and phenylalanine. The note with it: 45° C., 100 mM CAPS, pH 9.5 buffer. In kind it is biochemical. The procedure:
The PAL and TAL activities of the purified enzymes were measured using a spectrophotometer according to Abell et al., [Phenylalanine Ammonia-lyase from Yeast Rhodotorula glutinis,” Methods Enzymol. 142:242-248 (1987)]. The assay for PAL determination was initiated by addition of the enzyme to a 50 mM Tris-HCl (pH 8.5) buffer solution containing 1.0 mM L-phenylalanine. The reaction was followed by monitoring the CA production at λ290 nm and the activity was calculated using a molar extinction coefficient of […]. The assay was run over a 5 min period using an amount of enzyme that produced absorbance changes in the range of 0.0075 to 0.018/min. One unit of activity indicated deamination of 1.0 micro-mol of phenylalanine to CA per minute. The TAL activity was similarly measured using tyrosine, instead of phenylalanine, in the reaction solution. The absorbance of the pHCA produced was followed at λ315 nm and the activity was determined using an extinction coefficient of 10,000 cm^−1 for pHCA. One unit of activity indicated deamination of 1.0 micro-mol of tyrosine to pHCA per minute. Some TAL assays were performed at pH 9.5 or 10.0 in 100 mM CAPS buffer. The TAL activity was measured as described above, except that the extinction coefficient was 16,800 cm^−1 for pHCA.
The TAL assay was typically performed in a 1.5 ml capacity UV grade disposable cuvette (VWR) at 35° C. using a Perkin-Elmer Lamba20 spectrophotometer (Wellesley, Mass.). The reaction (1.0 ml volume) contained the soluble protein sample, 100 mM CAPS pH10 buffer and 10 mM tyrosine and was monitored for 3 minutes at I315 nm. The TAL activity (U/g) was calculated as follows: Total TAL activity (mM/min)=D315 nm/min×[…] divided by pHCA extinction coefficient (M^−1 cm^−1)=D315 nm/min×[…] divided by 16,800 (M^−1 cm^−1). TAL specific activity (U/g)=total TAL activity (mM/min) divided by the amount of protein used in the assay. Gel Electrophoresis
Six grams of cell pellet, from the 10 liter fermentation of DPD5154 was resuspended in 6.0 mL Buffer A (10 mM Tris-HCl, pH 8.0, 200 μM EDTA) containing one EDTA-free protease inhibitor tablet (Roche Biosciences, Palo Alto, Calif.), 1.0 μg/ml Leupeptin, 1.0 μg/ml Pepstatin, 40 μg/ml Bestatin 5.0 mM CA. Cells were lysed by two passes through a French Pressure Cell at 20,000 PSI, and clarified by centrifugation at 12,000×g for 20 minutes. To the clarified supernatant, 1.0% streptomycin sulfate was added, and the suspension was gently mixed for 15 minutes at 4° C. and then clarified by centrifugation at 12,000×g for 20 minutes. The supernatant was heated at 60° C. for 20 min, and centrifuged again at 12,000×g for 20 minutes. […]

Regarding `N[C@@H](Cc1c[nH]cn1)C(=O)O` [histidine], the “acceptance as a substrate” value in test [1] is given as “did not accept histidine as a substrate”.

For `N[C@@H](Cc1ccccc1)C(=O)O` [phenylalanine], in test [2], the Michaelis-Menten constant (Km) came to 161 µM and the kcat came out at 3.3 S^−1.

Consider `N[C@@H](Cc1ccc(O)cc1)C(=O)O` [tyrosine], for which, in test [2], the Km stood at 44 µM and the kcat is listed as 1.3 S^−1.
